Measurements taken from ChEMBL document CHEMBL1770095, “Discovery of histone deacetylase 8 selective inhibitors” (Bioorg Med Chem Lett, 2011).

Key:
[1] = target: Histone deacetylase 3/Nuclear receptor corepressor 2 (HDAC3/NCoR2) (Homo sapiens, UniProt O15379); test: Inhibition of full length HDAC3/NCoR2 assessed as 7-amino-4-methylcoumarin release from fluorophore conjugated substrate after 5 mins by fluorescence assay; assay type: protein-complex assay
Histone deacetylase 2 = Histone deacetylase 2 (Homo sapiens, UniProt Q92769); test: Inhibition of full length HDAC2 assessed as 7-amino-4-methylcoumarin release from fluorophore conjugated substrate after 5 mins by fluorescence assay
Chain of Histone deacetylase 2 (Q92769 whole entry): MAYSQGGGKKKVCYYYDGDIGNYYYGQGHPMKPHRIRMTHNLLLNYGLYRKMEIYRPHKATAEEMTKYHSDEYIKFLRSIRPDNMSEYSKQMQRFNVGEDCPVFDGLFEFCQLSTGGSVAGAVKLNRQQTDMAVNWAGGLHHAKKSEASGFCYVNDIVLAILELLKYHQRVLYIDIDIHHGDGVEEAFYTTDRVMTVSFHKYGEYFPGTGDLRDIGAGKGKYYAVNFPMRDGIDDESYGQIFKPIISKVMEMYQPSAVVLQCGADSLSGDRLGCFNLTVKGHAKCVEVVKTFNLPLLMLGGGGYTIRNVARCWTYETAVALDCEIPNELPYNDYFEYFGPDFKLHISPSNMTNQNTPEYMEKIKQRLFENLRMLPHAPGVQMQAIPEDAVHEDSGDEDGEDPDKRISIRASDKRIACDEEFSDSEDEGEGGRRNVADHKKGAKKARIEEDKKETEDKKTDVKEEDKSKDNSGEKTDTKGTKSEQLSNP

Histone deacetylase 8 = target: T1, Histone deacetylase 8 (Homo sapiens, UniProt Q9BY41); test: Inhibition of full length HDAC8 assessed as 7-amino-4-methylcoumarin release from fluorophore conjugated substrate after 5 mins by fluorescence assay
T1 sequence (Q9BY41 whole entry): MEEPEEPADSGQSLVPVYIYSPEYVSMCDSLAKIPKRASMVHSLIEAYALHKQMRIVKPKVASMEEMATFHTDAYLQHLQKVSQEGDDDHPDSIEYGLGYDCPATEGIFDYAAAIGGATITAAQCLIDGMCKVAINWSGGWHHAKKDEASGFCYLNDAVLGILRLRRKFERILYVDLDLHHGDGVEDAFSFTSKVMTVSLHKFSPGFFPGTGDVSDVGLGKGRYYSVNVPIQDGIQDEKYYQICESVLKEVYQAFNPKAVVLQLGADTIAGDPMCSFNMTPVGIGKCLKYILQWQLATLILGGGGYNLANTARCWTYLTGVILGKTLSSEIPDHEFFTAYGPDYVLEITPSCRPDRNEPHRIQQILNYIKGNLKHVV

Chain of Histone deacetylase 3/Nuclear receptor corepressor 2 (HDAC3/NCoR2) (O15379 whole entry): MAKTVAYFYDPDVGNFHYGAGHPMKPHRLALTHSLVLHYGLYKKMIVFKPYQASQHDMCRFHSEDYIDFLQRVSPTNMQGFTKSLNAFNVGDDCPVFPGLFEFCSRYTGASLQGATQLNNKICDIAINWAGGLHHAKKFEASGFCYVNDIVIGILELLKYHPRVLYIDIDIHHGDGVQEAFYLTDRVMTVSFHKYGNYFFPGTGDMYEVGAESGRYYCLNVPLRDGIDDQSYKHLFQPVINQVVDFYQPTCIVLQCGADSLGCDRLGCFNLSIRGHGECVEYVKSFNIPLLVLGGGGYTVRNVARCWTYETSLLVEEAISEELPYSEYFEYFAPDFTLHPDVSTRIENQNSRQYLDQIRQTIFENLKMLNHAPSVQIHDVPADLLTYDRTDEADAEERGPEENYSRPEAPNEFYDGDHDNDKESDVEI
Chain of Histone deacetylase 3/Nuclear receptor corepressor 2 (HDAC3/NCoR2) (Q9Y618 whole entry, further chain): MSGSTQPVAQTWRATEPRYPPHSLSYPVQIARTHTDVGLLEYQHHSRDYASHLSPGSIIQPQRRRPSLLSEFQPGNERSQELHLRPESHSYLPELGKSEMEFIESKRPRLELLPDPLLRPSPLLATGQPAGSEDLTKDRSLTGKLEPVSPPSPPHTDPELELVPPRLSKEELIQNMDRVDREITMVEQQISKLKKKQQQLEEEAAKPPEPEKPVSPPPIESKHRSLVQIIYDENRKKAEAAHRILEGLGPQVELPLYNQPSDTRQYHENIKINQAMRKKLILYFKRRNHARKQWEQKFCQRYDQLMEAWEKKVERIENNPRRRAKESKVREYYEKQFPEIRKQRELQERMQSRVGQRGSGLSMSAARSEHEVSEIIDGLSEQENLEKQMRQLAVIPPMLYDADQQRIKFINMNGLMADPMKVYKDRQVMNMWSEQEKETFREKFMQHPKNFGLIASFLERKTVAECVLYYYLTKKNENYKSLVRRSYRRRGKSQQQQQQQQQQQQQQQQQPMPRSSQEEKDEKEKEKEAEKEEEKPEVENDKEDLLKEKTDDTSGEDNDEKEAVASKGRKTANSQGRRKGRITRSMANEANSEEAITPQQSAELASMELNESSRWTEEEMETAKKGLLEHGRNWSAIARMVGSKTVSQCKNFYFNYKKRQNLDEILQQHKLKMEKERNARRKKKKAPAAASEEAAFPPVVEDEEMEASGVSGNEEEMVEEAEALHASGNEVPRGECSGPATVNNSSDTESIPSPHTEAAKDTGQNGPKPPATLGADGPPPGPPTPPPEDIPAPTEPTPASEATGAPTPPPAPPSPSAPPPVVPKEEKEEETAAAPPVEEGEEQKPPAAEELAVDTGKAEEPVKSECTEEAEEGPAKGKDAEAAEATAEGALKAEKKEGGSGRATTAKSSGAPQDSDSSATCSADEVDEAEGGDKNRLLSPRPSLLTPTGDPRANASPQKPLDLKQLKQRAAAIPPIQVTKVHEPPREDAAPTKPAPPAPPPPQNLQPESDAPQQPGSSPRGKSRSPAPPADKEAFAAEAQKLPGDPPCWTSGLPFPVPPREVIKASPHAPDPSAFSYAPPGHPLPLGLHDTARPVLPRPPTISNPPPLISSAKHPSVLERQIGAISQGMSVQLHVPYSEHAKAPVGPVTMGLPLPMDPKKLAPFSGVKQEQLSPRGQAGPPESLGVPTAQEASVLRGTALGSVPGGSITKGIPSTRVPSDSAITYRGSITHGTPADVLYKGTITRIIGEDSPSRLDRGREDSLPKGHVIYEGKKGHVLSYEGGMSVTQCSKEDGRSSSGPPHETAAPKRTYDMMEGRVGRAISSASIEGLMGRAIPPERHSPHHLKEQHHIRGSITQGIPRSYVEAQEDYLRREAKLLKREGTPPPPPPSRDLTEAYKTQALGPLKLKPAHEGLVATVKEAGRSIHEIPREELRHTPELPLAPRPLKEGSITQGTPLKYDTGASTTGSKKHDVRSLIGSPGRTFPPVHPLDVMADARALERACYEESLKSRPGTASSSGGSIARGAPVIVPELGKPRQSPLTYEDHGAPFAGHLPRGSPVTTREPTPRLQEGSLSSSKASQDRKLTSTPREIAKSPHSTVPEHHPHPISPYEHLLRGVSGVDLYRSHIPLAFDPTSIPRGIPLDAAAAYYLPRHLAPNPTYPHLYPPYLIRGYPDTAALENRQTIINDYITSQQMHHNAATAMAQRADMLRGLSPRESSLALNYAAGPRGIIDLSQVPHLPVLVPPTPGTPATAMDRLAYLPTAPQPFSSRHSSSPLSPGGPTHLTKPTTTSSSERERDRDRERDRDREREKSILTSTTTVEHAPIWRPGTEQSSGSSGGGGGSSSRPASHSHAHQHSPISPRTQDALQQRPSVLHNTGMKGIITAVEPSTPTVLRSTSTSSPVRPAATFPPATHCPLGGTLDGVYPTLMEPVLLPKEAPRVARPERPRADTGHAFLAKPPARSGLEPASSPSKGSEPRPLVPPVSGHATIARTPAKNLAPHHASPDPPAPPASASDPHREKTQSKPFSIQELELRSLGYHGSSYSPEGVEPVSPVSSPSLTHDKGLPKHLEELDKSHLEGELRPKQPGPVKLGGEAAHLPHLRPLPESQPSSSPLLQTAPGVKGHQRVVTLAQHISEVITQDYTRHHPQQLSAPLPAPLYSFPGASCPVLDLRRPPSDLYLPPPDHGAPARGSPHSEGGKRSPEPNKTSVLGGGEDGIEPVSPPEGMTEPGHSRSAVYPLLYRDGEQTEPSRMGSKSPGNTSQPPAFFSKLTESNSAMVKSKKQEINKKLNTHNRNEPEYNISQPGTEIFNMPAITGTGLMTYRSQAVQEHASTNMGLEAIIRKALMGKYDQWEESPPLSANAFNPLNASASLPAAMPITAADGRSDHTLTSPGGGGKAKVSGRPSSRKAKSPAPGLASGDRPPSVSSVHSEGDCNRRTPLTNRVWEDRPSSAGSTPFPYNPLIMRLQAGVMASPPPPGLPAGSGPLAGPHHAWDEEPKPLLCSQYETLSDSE

Compound | IC50 [1] [µM] | IC50 (Histone deacetylase 2) [µM] | IC50 (Histone deacetylase 8) [µM]
C#CCOc1ccc(/C=N/NC(=O)c2cccc(C(=O)NO)c2)cc1 | 6.2 | 6.3 | 0.029
O=C1CC/C=C/CCC(=O)N(Cc2cccc(/C=N/NC(=O)c3cccc(C(=O)NO)c3)c2)C[C@H](c2ccccc2)O1 | 15 | 5 | 0.11
C#CCOc1ccc(/C=N/NC(=O)CCCCCCC(=O)NO)cc1 | 0.0031 | 0.0021 | 0.29
O=C(NO)c1cccc(C(=O)N/N=C/c2ccccc2)c1 | 18 | 20 | 0.052
O=C1CC/C=C/CCC(=O)N(Cc2cccc(/C=N/NC(=O)c3cccc(C(=O)NO)c3)c2)C[C@@H](c2ccccc2)O1 | 15 | 3.6 | 0.023
